Measurements: US7335661B2, “Fungicidal mixtures” (BASF Aktiengesellschaft, priority 2002, dated 2008)

Key:
[1] = test system: Botrytis cinerea; experiment: Activity against gray mold on bellpepper leaves caused by Botrytis cinerea, protective application; assay type: in vivo; conditions: individual active compound, bellpepper seedlings, 5 days
Experimental: (§1) The active compounds, separately or jointly, were prepared as a stock solution with 0.25% by weight of active compound in acetone or DMSO. 1% by weight of the emulsifier Uniperol® EL (wetting agent having emulsifying and dispersing action based on ethoxylated alkylphenols) was added to this solution, and the solution was diluted with water to the desired concentration.
(§2) Evaluation was carried out by determining the infected leaf areas as a percentage. These percentages were converted into efficacies. The efficacy (W) was calculated as follows using Abbot's formula: W=(1−a/b)·100 • a corresponds to the fungal infection of the treated plants in % and • b corresponds to the fungal infection of the untreated (control) plants in %
(§3) An efficacy of 0 means that the infection level of the treated plants corresponds to that of the untreated control plants; an efficacy of 100 means that the treated plants were not infected.
(§4) The expected efficacies of the mixtures of the active compounds were determined using Colby's formula [R. S. Colby, Weeds 15, 20-22 (1967)] and compared with the observed efficacies. Colby's formula: E=x+y−x·y/100 • E expected efficacy, expressed as % of the untreated control, when using the mixture of the active compounds A and B at the concentrations a and b • x efficacy, expressed as % of the untreated control, when using active compound A at a concentration a • y efficacy, expressed as % of the untreated control, when using active compound B at a concentration b
Bellpepper seedlings of the cultivar “Neusiedler Ideal Elite” were, after 4-5 leaves were well developed, sprayed to runoff point with an aqueous suspension having the active compound concentration stated below. The next day, the treated plants were inoculated with a spore suspension of Botrytis cinerea which contained 1.7×10^6 spores/ml in a 2% strength aqueous biomalt solution. The test plants were then placed in a climatized chamber at 22-24_C and high atmospheric humidity. After 5 days, the extent of the fungus development on the leaves could be determined visually in %.
Evaluation was carried out analogously to example 1.

[2] = test system: Puccinia recondita; experiment: Curative activity against wheat leaf rust caused by Puccinia recondita; assay type: in vivo; conditions: individual active compound, 7 days
Experimental: as §1
Leaves of potted wheat seedlings of the cultivar “Kanzler” were dusted with spores of leaf rust (Puccinia recondita). For 24 hours, the pots were then placed at 20-22_C in a chamber with high atmospheric humidity (90-95%). During this time, the spores germinated and the germinal tubes penetrated into the leaf tissue. The next day, the infected plants were sprayed to runoff point with an aqueous suspension having the concentration of active compounds stated below. The suspension or emulsion was prepared as described above. After the spray coating had dried on, the test plants were cultivated in a greenhouse at 20-22_C and 65-70% relative atmospheric humidity for 7 days. The extent of rust fungus development on the leaves was then determined.
as §2, §3, §4

[3] = 4 ppm in the spray liquor, wheat seedlings cv. Kanzler

SMILES: O=C(Nc1ccccc1-c1ccc(Cl)cc1)c1cccnc1Cl [II-5, boscalid, reference compound]
- Efficacy in % of the untreated control ([1]; 0.25 ppm in the spray liquor): 0%
- Efficacy in % of the untreated control ([1]; 1 ppm in the spray liquor): 0%
- Efficacy in % of the untreated control ([2]; 0.25 ppm in the spray liquor, wheat seedlings): 0%
- Efficacy in % of the untreated control [2, 3]: 0%

SMILES: CC1CCN(c2c(-c3c(F)cc(F)cc3F)c(Cl)nc3ncnn23)CC1 [I, 5-chloro-7-(4-methylpiperidin-1-yl)-6-(2,4,6-trifluorophenyl)-[1,2,4]triazolo[1,5-a]pyrimidine]
- Efficacy in % of the untreated control ([1]; 0.25 ppm in the spray liquor): 0%
- Efficacy in % of the untreated control ([1]; 1 ppm in the spray liquor): 37%
- Efficacy in % of the untreated control ([1]; 4 ppm in the spray liquor): 68%
- Efficacy in % of the untreated control ([2]; 1 ppm in the spray liquor, wheat seedlings): 0%
- Efficacy in % of the untreated control [2, 3]: 56%
